Experimental data published in patent publication US20090203636A1, “Prevention and Treatment of Cancer and Other Diseases” (priority 2006, published 2009).
Values joined by “and” are separate entries in the source; they are usually repeats but may differ in a detail not shown here. Equal entries are not always repeated.

Tests used:
U-2 OS cells [1] = test: Telomere length (flow cytometry, PNA probe), cell cycle distribution (PI), apoptosis and TRAP status in U-2 OS cells; format: cell-based, human
Experimental: (§1) The ALT cell lines were treated with therapeutic concentrations of AZT, to determine if slippage telomeric DNA synthesis could be inhibited by AZT-TP, and thereby induce telomere shortening. Telomere length in AZT treated and untreated cell lines was measured by flow cytometry with a telomere specific peptide nucleic acid (PNA) probe. To determine cell cycle distribution, cells were stained with propidium iodide (PI).
Rate of DNA synthesis was determined by incorporation of 5-bromodeoxyuridine (BdU). […] It is important to note that changes in cell cycle distribution, DNA synthesis and telomere length were rapid and could be detected after only 10 days of AZT treatment.
Telomere length in untreated and GCV treated cells was measured by flow cytometry with a telomere-specific PNA probe as described above.
To determine cell cycle distribution, cells were stained with propidium iodide (PI).
(§2) Both telomerase positive (Hela) telomerase negative (U-2 OS) cell lines were used. Appropriate assays were performed to detect and confirm telomerase/L1RT specific activity in these cells.
(§3) The U-2 OS (osteosarcoma) and HeLa (uterine cervix) cell lines used in this study were obtained from American Type Culture Collection (Rockville, Md.). Cells were cultured in D-MEM media supplemented with 10% fetal calf serum at 37° C. in a humidified atmosphere of 5% CO2. For treatment of the cells with ACV, the media was supplemented with 3 μM of acyclovir (acyclovir, TEVA Pharm. Ind. Ltd, Israel). For treatment of the cells with GCV, the media was supplemented with 1.5 μM of GCV (Cymevene, Hoffman-La Roche). For treatment of the cells with PCV, the media was supplemented with 1.5 μM of PCV (penciclovir, Merck & Co.).
(§4) Real time TRAP assay was performed as described (Wege et al., SYBR Green real-time telomeric repeat amplification protocol for the rapid quantification of telomerase activity. Nucleic Acids Res. 2003; 31(2):E3-3). For telomere length measurement by flow cytometry, cells were stained with telomere specific FITC conjugated (C3TA2)3 PNA (Applied Biosystems) probe and contrastained with 0.06 μg/ml PI as described by Rufer, N., Dragowska, W., Thornbury G., Roosnek, E., Lansdorp P. M. Telomere length dynamics in human lymphocyte subpopulations […]. Nat. Biotechnol. 16, 743-747 (1998)).
(a) In vitro arrays: U-2 OS cells were incubated with 0.2 μM of AZT for 22 days. Actively growing clones were analyzed by flow-FISH with telomere specific PNA probe, and in real time TRAP assay using HeLa cells as positive control. Isolated actively growing clones were different from parental cells in DNA content and telomere length.
(§5) Telomere length in SN 1 or SN 2 treated and untreated cell lines was measured by flow cytometry with a telomere—specific peptide nucleic acid PNA) probe. To determine cell cycle distribution, cells were stained with propidium iodide (PI).
(§6) The U-2 OS (osteosarcoma) and Hela (uterine cervix) cell lines used in this study were obtained from American Type Culture Collection (Rockville, Md.). Cells were cultured in D-MEM media supplemented with 10% fetal calf serum at 37° C. in a humidified atmosphere of 5% CO2. For treatment of the cells with SN 1 or SN 2, the media was supplemented with 1.5 μM of SN1 or SN2.
(§7) For telomere length measurement by flow cytometry, cells were stained with telomere specific FITC conjugated (C3TA2)3 PNA (Applied Biosystems) probe and contra-stained with 0.06 μg/ml PI as described by Rufer, N., Dragowska, W., Thornbury G., Roosnek, E., Lansdorp P. M. Telomere length dynamics in human lymphocyte subpopulations […]. Nat. Biotechnol. 16, 743-747 (1998)).

[2] = tested on: Saos-2 osteosarcoma cells; test: Telomere length (flow cytometry, PNA probe), cell cycle distribution (PI) and apoptosis in Saos-2 cells; format: cell-based, human; settings: therapeutic concentrations of AZT, 14 days
Experimental: as §1

HeLa cells [3] = test: Telomere length (flow cytometry, PNA probe), cell cycle distribution (PI) and apoptosis in HeLa cells; format: cell-based, human
Experimental: as §1
(§8) The origin of the cell lines are uterine cervix (HeLa) and epithelial ovarian (NuTu-19). Cells were cultured in D-MEM media supplemented with 10% fetal calf serum at 37° C. in a humidified atmosphere of 5% CO2. For treatment of the cells with GCV, the media was supplemented with 1.5 μM of GCV (Cymevene, Hoffman-La Roche). For treatment of the cells with ACV, the media was supplemented with 3 μM of Acyclovir (Acyclovir, TEVA Pharm. Ind. Id. Israel).
as §4, §2, §3, §5, §6, §7

NuTu-19 cells = test: Telomere length (flow cytometry, PNA probe), cell cycle distribution (PI) and apoptosis in NuTu-19 cells; format: cell-based; settings: AZT even at elevated concentrations e.g., 100 μM
Experimental: as §8, §4

U-2 OS/RAS cells = test: Prevention and treatment of telomerase negative (ALT) tumors in nude mice injected s.c. with U-2 OS/RAS cells; format: in vivo
Experimental: (a) Nude mice injected with U-2 OS/RAS cells: Crl1:CD1-/nu mice were purchased from Charles River Laboratories, Charles River Deutschland GmbH (Dec. 23, 2004). A total of 12 Nude mice were injected s.c. with 6×10^5 U-2 OS/RAS cells. These mice were divided into experimental and control groups.
The experimental group of mice started to receive AZT in drinking water (1 mg/ml) from the day one. In the control group, mice developed tumors (in N1 by the 26th day; in N2 by the […] and in N3 by the 41st day following the tumor cell injection).
All mice without tumors were sacrificed. One mouse from control group that developed tumors first was sacrificed on the 51 day following the tumor cell injection. Tumor tissue was mechanically separated to raise cell suspension. About 20 million of cells were seeded in McCoy's 5 A media supplemented with 10% FCS. The tissue cultured cells were used for further analysis.
Two mice from control group with tumors started to receive AZT in drinking water (1 mg/ml) from day 52. One mouse had died on day 80. Second was sacrificed on day 110 following the tumor cell injection. Tumor tissue was collected and stored at −80° C. for further analysis.

U-2 OS cells [4] = settings: therapeutic concentrations, 14 days; reported in WO 2005/069880; cited from earlier work
[5] = tested on: Saos-2 osteosarcoma cells; settings: therapeutic concentrations, 14 days; reported in WO 2005/069880; cited from earlier work
HeLa cells [6] = format: in vivo
Experimental: For in vivo assay, appropriate host, e.g., nude (nu/nu) mice of about 5-7 weeks old are obtained and maintained in pathogen-free conditions. Approximately, 1×10^6 HeLa cells (and/or U-2 OS cells) contained in 200 μl of serum-free media are delivered to all animals, briefly anaesthetize with Metofane, by subcutaneous (s.c.) injection in flank. Then the mice are divided into experimental group and control group. Appropriate concentrations of compounds of the formulas (I) to (VI), ACV, PCV and/or GCV are used for tumor growth progression or regression assays.
In one embodiment, impairment of s.c. tumor growth or time to progression rather than decrease in size of an established tumor (regression) is assessed. In this embodiment, starting from the day zero, mice in the experimental group receive GCV in drinking water ad libitum. Concentration of GCV in water can be 2 mg/ml. Fresh solution of GCV is supplied every 3 days. Mice in the control group receive only drinking water. Tumors are measured every 2-3 days. Mice are sacrificed when tumors exceed 1 cm^3. Tumor volume is calculated with formula 4/3πr^3, where r is the radius of the tumor.
Experimental group received valganciclovir in drinking water from day 0. Human cancer HeLa cell culture was purchased from ATCC. In all, 12 CD1/-nu and 12 NMRiI/-nu nude mice were purchased from Charles River Laboratories, Charles River Deutschland GmbH. These nude mice were injected s.c. with 3×10^5 Hela cells. Mice in the experimental groups (6 mice per strain) were exposed to Valcyte® (val-ganciclovir) in drinking water (1 mg/ml) from day 0.
(a) In vivo assays using Valganciclovir and zidovudine (AZT) combination: Human cancer HeLa cell culture was purchased from ATCC. A total of 24 CD1/-nu nude mice were purchased from Charles River laboratories, Charles River Deutschland GmbH. These mice were injected s.c. with 1×10^5 HeLa cells. The tumor volumes were determined by measurement of maximal and minimal diameters of the tumor. The calculations were conducted using the formula V=4/3 πRmax×Rmin^2, where Rmax−½ of maximal diameter of the tumor, and Rmin−½ of minimal diameter of the tumor. nude mice were injected s.c. with 1×10^5 Hela cells.
Of the 12 treated mice, after 20 days of double cocktail treatment, six mice were administered with a triple cocktail (Valcyte®+Retrovir®+ddI at the dose of 1 mg/ml each in drinking water for a further period 21 days (see Example 7 below) and only six mice continued to receive the double cocktail for another 21 days at which time tumor measurements were taken for all mice injected with HeLa cells. Of the remaining 12 mice injected with HeLa cells but untreated with any cocktail or anticancer agent thus far, six were maintained as controls for the rest of the duration of the experiment. The other six were treated with Xeloda® 67 days after the injection of HeLa cells (see Example 7 below).
As mentioned in Example 5 above, a total of six mice, after 20 days of double cocktail treatment, were administered with a triple cocktail (Valcyte®+Retrovir®+ddI at the dose of 1 mg/ml each in drinking water) for a further period 21 days. After 14 days of triple cocktail treatment, Xeloda® at a concentration 1 mg/ml was added to the triple cocktail. Six mice previously untreated with any drug for 67 days after the injection of HeLa cells were treated with Xeloda® at a concentration 1 mg/ml in drinking water. Tumor measurements were taken in all mice 75 days following the injection of HeLa cells.

[7] = tested on: inoperable carcinoma of stomach; format: in vivo, human; settings: one patient
Experimental: (a) Background therapy: 1 tablet of Retrovir® (AZT) 300 mg and 1 tablet of Zovirax™ (acyclovir, Glaxo Welcome), 400 mg/Valcyte® (valganciclovir) 450 mg/Valtrex® (Val-ACV) 500 mg all BID. Different acyclic nucleoside analogs were used during the 83 days of background therapy for reasons related to market availability.

MH22A cells = test: MH22a hepatoma tumors in C3HA mice, Cocktails 1-6 followed by added Xeloda (Example 10c, second experiment); format: in vivo, C3HA inbred mice
Experimental: In Vivo assays using the compounds of the formulas (I) to (IV) and valine esters of formulas I and II each in a triple cocktail with other nucleoside analogs and tumor in combination with AZT and ddI were carried out as follows:
8-10 weeks old male C3HA inbred mice (immunocometent mice) were purchased from Laboratory Animals Breeding Facility of Russian Academy of Medical Science (Rappalovo, Leningrad region). 3×10^5 MH22a cells were injected s.c. into back flank of 200 mice. Ten days after the injections, mice bearing developing tumors (14.15 mm^3) (the tumor volume calculated using the formula π/6 DmaxDmin^2) were selected and randomly divided into different experimental groups as set forth below:
Cocktail 1—Valacyclovir (0.166 mg/ml)+AZT (0.1 mg/ml)+ddI (0.066 mg/ml)−40 mice;
Cocktail 2—SN-1 (1 mg/ml)+AZT (0.1 mg/ml)+ddI (0.066 mg/ml)−10 mice;
Cocktail 3—SN-3 (1 mg/ml)+AZT (0.1 mg/ml)+ddI (0.066 mg/ml)−10 mice;
Cocktail 4—SN4 (1 mg/ml)+AZT (0.1 mg/ml)+ddI (0.066 mg/ml)−10 mice;
cocktail 5—Val-SN-1 (0.166 mg/ml)+AZT (0.1 mg/ml)+ddI (0.066 mg/ml)−20 mice; and
Cocktail 6—Val-SN-2 (0.166 mg/ml)+AZT (0.1 mg/ml)+ddI (0.066 mg/ml)−20 mice; and
Control group—Capecitabine (Xeloda®) (1 mg/ml) in drinking water-mice.
Valacyclovir (Valtrex® manufactured by GlaxoSmithKline) is a prodrug of acyclovir, which is an acyclic nucleoside analog. Didanosine (ddI) and AZT are non-acyclic-nucleoside analogs. The drugs, at the concentrations indicated above, were administered to the mice in drinking water. Two weeks following the cocktail treatments Xeloda® (1 mg/ml) was added to each of the cocktails and continued for the remaining experimental period. In the control group, mice were treated only with Xeloda® (1 mg/ml) in drinking water and this treatment started at the same time as the Xeloda® treatments in the cocktail groups. […] Tumor volumes (mm^3) in each injected mice were calculated, using the formula π/6 DmaxDmin^2, every week for four consecutive weeks following the commencement of the treatment with the drugs.

[8] = Xeloda 1 mg/ml added to cocktails after two weeks

Compound	telomerase status (real time TRAP assay) of actively growing clones (U-2 OS cells [1]; 0.2 μM of AZT for 22 days)	telomere length and rate of DNA synthesis (BdU incorporation) (U-2 OS cells [1]; AZT for different amounts of time)	telomere length, apoptosis and cell cycle distribution (U-2 OS cells [1]; therapeutic concentrations of AZT, 14 days)	telomere length, apoptosis and cell cycle distribution [2]	telomere length or cell cycle distribution (HeLa cells [3]; AZT at the chosen concentration, same conditions as ALT cells)	telomere length or cell cycle distribution (HeLa cells [3]; AZT even at elevated concentrations e.g., 100 μM)	telomere length or cell cycle distribution (NuTu-19 cells)	growth of established ALT tumors (U-2 OS/RAS cells; AZT in drinking water (1 mg/ml) from day 52)	tumor development (U-2 OS/RAS cells; AZT in drinking water (1 mg/ml) from day one, three of six control mice developed tumors)	telomere length, cell cycle and apoptosis (U-2 OS cells [4])	telomere length, cell cycle and apoptosis [5]	average size of tumors less compared to the untreated control group (HeLa cells [6]; Xeloda 1 mg/ml in drinking water from day 67) [%]	survival (HeLa cells [6]; drugs 1 mg/ml each in drinking water, 75 days following injection of HeLa cells) [%]	Tumor Volume (mm^3) in nude mice 75 days following the injection of HeLa cells (HeLa cells [6]; mean value of 4 mice)	toxicity in the patient [7]	Number tumor-free (MH22A cells; 4 weeks of treatment, Xeloda 1 mg/ml added to cocktails after two weeks)	Number died during the 4 week treatment period (MH22A cells; [8])	Number showing tumors after four weeks of treatment (MH22A cells; [8])	Tumor volume at the end of the experimental period (MH22A cells; individual tumor-bearing mice, formula π/6 DmaxDmin^2)
Cc1cn([C@H]2C[C@H](N=[N+]=[N-])[C@@H](CO)O2)c(=O)[nH]c1=O [AZT, azido-2′,3′-dideoxythymidine]	positive for telomerase	progressive telomere shortening and decrease in DNA synthesis	telomere shortening, massive apoptosis and G2 arrest	telomere shortening, massive apoptosis and G2 arrest	no effect on telomere length or cell cycle distribution	no effect on telomere length or cell cycle distribution	no effect on telomere length or cell cycle distribution	slowing of tumor growth	No one mice from AZT treated group had developed tumors	telomere shortening, G2 arrest and massive apoptosis	telomere shortening, G2 arrest and massive apoptosis	–	–	–	–	–	–	–	–
CCCCCOC(=O)Nc1nc(=O)n([C@@H]2O[C@H](C)[C@@H](O)[C@H]2O)cc1F [Xeloda®]	–	–	–	–	–	–	–	–	–	–	–	17	66	1811.0 (mean value) mm^3	caused toxicity in the patient	0	2	6	6288 mm^3 (2×) and 10480 mm^3 and 1152 mm^3 and 2146 mm^3 and 4192 mm^3
